Data taken from patent EP4692083A1, “NOVEL AZABICYCLE DERIVATIVES AND PHARMACEUTICAL COMPOSITION FOR INHIBITING AUTOTAXIN, COMPRISING SAME” (Nextgen Bioscience Co., Ltd., priority 2023, dated 2024).

Target: human Autotaxin protein (Homo sapiens, UniProt Q13822)
Assay: Evaluation of the inhibitory activity against human Autotaxin protein (18:1 LysoPC substrate, choline assay kit, absorbance at 570 nm)
Type: biochemical
Settings: at 500nM compound, 2 hours at 37 °C, read-out: Inhibition rate (%, at 500nM)
Procedure: Solutions of each synthesized compound (80 uM, 100% dimethyl sulfoxide) were sequentially diluted 5-fold with dimethyl sulfoxide to prepare 6 concentrations. Each concentration of the compound was diluted 2-fold with 1x test buffer (50 mM Tris-Cl (pH 8.0), 5 mM KCl, 1 mM CaCl2, 1 mM MgCl2, 140 mM NaCl, deionized water, 1 mg/mL BSA), and 1 uL (1.25% dimethylsulfoxide) of the diluted mixture was dispensed into each well of a 96-well clear round-bottom plate. 9 uL of 1x test buffer was added, and 20 uL of 240 nM human autotaxin protein (buffer: 50 mM Tris-HCl, pH 8.0, with 150 mM sodium chloride and 20% glycerol) was added. 10 uL of sonicated 360 uM 18:1 LysoPC (diluted with 1x assay buffer) was added. The reaction was performed for 2 hours in a shaking incubator at 37 °C, and a secondary reaction mixture (choline assay kit, KA1662) (65 uL of 1x assay buffer: 1 uL of choline oxidase: 1 uL of dye probe) was prepared. 60 uL of the secondary reaction mixture was added to the plate where the reaction was performed, and incubated for 30 minutes in a shaker. The absorbance value was measured at a wavelength of 570 nm using a SpectraMax iD3 microplate reader. The percentage inhibition activity value (% inhibition) was calculated by the formula: (1 - absorbance value test group / absorbance value control group) X 100.

Row | SMILES | inhibition at 0.5 µM [%]
1 | c1ccc(CNc2ncc(-c3nnc(N4C[C@@H]5[C@H](C4)[C@H]5c4cnn[nH]4)o3)cn2)cc1 [Example 1, 5-(5-((1R,5S,6r)-6-(1H-1,2,3-Triazol-5-yl)-3-azabicyclo[3.1.0]hexan-3-yl)-1,3,4-oxadiazol-2-yl)-N-benzylpyrimidin-2-amine] | 63.6
2 | Clc1cccc(CNc2ncc(-c3nnc(N4C[C@@H]5[C@H](C4)[C@H]5c4cnn[nH]4)o3)cn2)c1 [Example 2, 5-(5-((1R,5S,6r)-6-(1H-1,2,3-Triazol-5-yl)-3-azabicyclo[3.1.0]hexan-3-yl)-1,3,4-oxadiazol-2-yl)-N-(3-chlorobenzyl)pyrimidin-2-amine] | 88.5
3 | Clc1ccc(CNc2ncc(-c3nnc(N4C[C@@H]5[C@H](C4)[C@H]5c4cnn[nH]4)o3)cn2)cc1 [Example 3, 5-(5-((1R,5S,6r)-6-(1H-1,2,3-Triazol-5-yl)-3-azabicyclo[3.1.0]hexan-3-yl)-1,3,4-oxadiazol-2-yl)-N-(4-chlorobenzyl)pyrimidin-2-amine] | 73.1
4 | Fc1ccc(CNc2ncc(-c3nnc(N4C[C@@H]5[C@H](C4)[C@H]5c4cnn[nH]4)o3)cn2)cc1F [Example 4, 5-(5-((1R,5S,6r)-6-(1H-1,2,3-Triazol-5-yl)-3-azabicyclo[3.1.0]hexan-3-yl)-1,3,4-oxadiazol-2-yl)-N-(3,4-difluorobenzyl)pyrimidin-2-amine] | 81.5
5 | Fc1cc(F)cc(CNc2ncc(-c3nnc(N4C[C@@H]5[C@H](C4)[C@H]5c4cnn[nH]4)o3)cn2)c1 [Example 5, 5-(5-((1R,5S,6r)-6-(1H-1,2,3-Triazol-5-yl)-3-azabicyclo[3.1.0]hexan-3-yl)-1,3,4-oxadiazol-2-yl)-N-(3,5-difluorobenzyl)pyrimidin-2-amine] | 86.4
6 | Clc1ccc(CNc2ncc(-c3nnc(N4C[C@@H]5[C@H](C4)[C@H]5c4cnn[nH]4)o3)cn2)cc1Cl [Example 6, 5-(5-((1R,5S,6r)-6-(1H-1,2,3-Triazol-5-yl)-3-azabicyclo[3.1.0]hexan-3-yl)-1,3,4-oxadiazol-2-yl)-N-(3,4-dichlorobenzyl)pyrimidin-2-amine] | 68.9
7 | Clc1cc(Cl)cc(CNc2ncc(-c3nnc(N4C[C@@H]5[C@H](C4)[C@H]5c4cnn[nH]4)o3)cn2)c1 [Example 7, 5-(5-((1R,5S,6r)-6-(1H-1,2,3-Triazol-5-yl)-3-azabicyclo[3.1.0]hexan-3-yl)-1,3,4-oxadiazol-2-yl)-N-(3,5-dichlorobenzyl)pyrimidin-2-amine] | 92
8 | Brc1cc(Br)cc(CNc2ncc(-c3nnc(N4C[C@@H]5[C@H](C4)[C@H]5c4cnn[nH]4)o3)cn2)c1 [Example 8, 5-(5-((1R,5S,6r)-6-(1H-1,2,3-Triazol-5-yl)-3-azabicyclo[3.1.0]hexan-3-yl)-1,3,4-oxadiazol-2-yl)-N-(3,5-dibromobenzyl)pyrimidin-2-amine] | 97.3
9 | c1cc2c(cc1CNc1ncc(-c3nnc(N4C[C@@H]5[C@H](C4)[C@H]5c4cnn[nH]4)o3)cn1)OCO2 [Example 9, 5-(5-((1R,5S,6r)-6-(1H-1,2,3-Triazol-5-yl)-3-azabicyclo[3.1.0]hexan-3-yl)-1,3,4-oxadiazol-2-yl)-N-(benzo[d][1,3]dioxol-5-ylmethyl)pyrimidin-2-amine] | 40.6
10 | FC(F)(F)c1cc(CNc2ncc(-c3nnc(N4C[C@@H]5[C@H](C4)[C@H]5c4cnn[nH]4)o3)cn2)cc(C(F)(F)F)c1 [Example 10, 5-(5-((1R,5S,6r)-6-(1H-1,2,3-Triazol-5-yl)-3-azabicyclo[3.1.0]hexan-3-yl)-1,3,4-oxadiazol-2-yl)-N-(3,5-bis(trifluoromethyl)benzyl)pyrimidin-2-amine] | 91.6
11 | c1ccc(CCNc2ncc(-c3nnc(N4C[C@@H]5[C@H](C4)[C@H]5c4cnn[nH]4)o3)cn2)cc1 [Example 11, 5-(5-((1R,5S,6r)-6-(1H-1,2,3-Triazol-5-yl)-3-azabicyclo[3.1.0]hexan-3-yl)-1,3,4-oxadiazol-2-yl)-N-phenethylpyrimidin-2-amine] | 85.3
12 | Fc1cccc(CCNc2ncc(-c3nnc(N4C[C@@H]5[C@H](C4)[C@H]5c4cnn[nH]4)o3)cn2)c1 [Example 12, 5-(5-((1R,5S,6r)-6-(1H-1,2,3-Triazol-5-yl)-3-azabicyclo[3.1.0]hexan-3-yl)-1,3,4-oxadiazol-2-yl)-N-(3-fluorophenethyl)pyrimidin-2-amine] | 82.9
13 | Fc1ccc(CCNc2ncc(-c3nnc(N4C[C@@H]5[C@H](C4)[C@H]5c4cnn[nH]4)o3)cn2)cc1 [Example 13, 5-(5-((1R,5S,6r)-6-(1H-1,2,3-Triazol-5-yl)-3-azabicyclo[3.1.0]hexan-3-yl)-1,3,4-oxadiazol-2-yl)-N-(4-fluorophenethyl)pyrimidin-2-amine] | 86
14 | Clc1cccc(CCNc2ncc(-c3nnc(N4C[C@@H]5[C@H](C4)[C@H]5c4cnn[nH]4)o3)cn2)c1 [Example 14, 5-(5-((1R,5S,6r)-6-(1H-1,2,3-Triazol-5-yl)-3-azabicyclo[3.1.0]hexan-3-yl)-1,3,4-oxadiazol-2-yl)-N-(3-chlorophenethyl)pyrimidin-2-amine] | 85.3
15 | Clc1ccc(CCNc2ncc(-c3nnc(N4C[C@@H]5[C@H](C4)[C@H]5c4cnn[nH]4)o3)cn2)cc1 [Example 15, 5-(5-((1R,5S,6r)-6-(1H-1,2,3-Triazol-5-yl)-3-azabicyclo[3.1.0]hexan-3-yl)-1,3,4-oxadiazol-2-yl)-N-(4-chlorophenethyl)pyrimidin-2-amine] | 94.5
16 | c1ccc2c(c1)CC(Nc1ncc(-c3nnc(N4C[C@@H]5[C@H](C4)[C@H]5c4cnn[nH]4)o3)cn1)C2 [Example 16, 5-(5-((1R,5S,6r)-6-(1H-1,2,3-Triazol-5-yl)-3-azabicyclo[3.1.0]hexan-3-yl)-1,3,4-oxadiazol-2-yl)-N-(2,3-dihydro-1H-inden-2-yl)pyrimidin-2-amine] | 98.6
17 | Fc1cc2c(cc1F)CC(Nc1ncc(-c3nnc(N4C[C@@H]5[C@H](C4)[C@H]5c4cnn[nH]4)o3)cn1)C2 [Example 17, 5-(5-((1R,5S,6r)-6-(1H-1,2,3-Triazol-5-yl)-3-azabicyclo[3.1.0]hexan-3-yl)-1,3,4-oxadiazol-2-yl)-N-(5,6-difluoro-2,3-dihydro-1H-inden-2-yl)pyrimidin-2-amine] | 96.7
18 | Brc1ccc2c(c1)CC(Nc1ncc(-c3nnc(N4C[C@@H]5[C@H](C4)[C@H]5c4cnn[nH]4)o3)cn1)C2 (stereo partly drawn) [Example 18, 5-(5-((1R,5S,6r)-6-(1H-1,2,3-Triazol-5-yl)-3-azabicyclo[3.1.0]hexan-3-yl)-1,3,4-oxadiazol-2-yl)-N-(5-bromo-2,3-dihydro-1H-inden-2-yl)pyrimidin-2-amine] | 87.6
19 | O=C(CCc1cnc(NC2Cc3ccccc3C2)nc1)N1C[C@@H]2[C@H](C1)[C@H]2c1cnn[nH]1 [Example 19, 1-((1R,5S,6r)-6-(1H-1,2,3-Triazol-5-yl)-3-azabicyclo[3.1.0]hexan-3-yl)-3-(2-((2,3-dihydro-1H-inden-2-yl)amino)pyrimidin-5-yl)propan-1-one] | 91.9
20 | FC(F)(F)c1ccc(CNc2ncc(-c3nnc(N4C[C@@H]5[C@H](C4)[C@H]5c4cnn[nH]4)o3)cn2)cc1 [Example 20, 5-(5-((1R,5S,6r)-6-(1H-1,2,3-Triazol-5-yl)-3-azabicyclo[3.1.0]hexan-3-yl)-1,3,4-oxadiazol-2-yl)-N-(4-(trifluoromethyl)benzyl)pyrimidin-2-amine] | 88.5
21 | FC(F)(F)c1cccc(CNc2ncc(-c3nnc(N4C[C@@H]5[C@H](C4)[C@H]5c4cnn[nH]4)o3)cn2)c1 [Example 21, 5-(5-((1R,5S,6r)-6-(1H-1,2,3-Triazol-5-yl)-3-azabicyclo[3.1.0]hexan-3-yl)-1,3,4-oxadiazol-2-yl)-N-(3-(trifluoromethyl)benzyl)pyrimidin-2-amine] | 97.6
22 | FC(F)(F)c1ccccc1CNc1ncc(-c2nnc(N3C[C@@H]4[C@H](C3)[C@H]4c3cnn[nH]3)o2)cn1 [Example 22, 5-(5-((1R,5S,6r)-6-(1H-1,2,3-Triazol-5-yl)-3-azabicyclo[3.1.0]hexan-3-yl)-1,3,4-oxadiazol-2-yl)-N-(2-(trifluoromethyl)benzyl)pyrimidin-2-amine] | 98.4
23 | FC(F)c1ccc(CNc2ncc(-c3nnc(N4C[C@@H]5[C@H](C4)[C@H]5c4cnn[nH]4)o3)cn2)cc1 [Example 23, 5-(5-((1R,5S,6r)-6-(1H-1,2,3-Triazol-5-yl)-3-azabicyclo[3.1.0]hexan-3-yl)-1,3,4-oxadiazol-2-yl)-N-(4-(difluoromethyl)benzyl)pyrimidin-2-amine] | 82.2
24 | N#Cc1ccc(CNc2ncc(-c3nnc(N4C[C@@H]5[C@H](C4)[C@H]5c4cnn[nH]4)o3)cn2)cc1 [Example 24, 4-(((5-(5-((1R,5S,6r)-6-(1H-1,2,3-Triazol-5-yl)-3-azabicyclo[3.1.0]hexan-3-yl)-1,3,4-oxadiazol-2-yl)pyrimidin-2-yl)amino)methyl)benzonitrile] | 66.3
25 | N#Cc1cccc(CNc2ncc(-c3nnc(N4C[C@@H]5[C@H](C4)[C@H]5c4cnn[nH]4)o3)cn2)c1 [Example 25, 3-(((5-(5-((1R,5S,6r)-6-(1H-1,2,3-Triazol-5-yl)-3-azabicyclo[3.1.0]hexan-3-yl)-1,3,4-oxadiazol-2-yl)pyrimidin-2-yl)amino)methyl)benzonitrile] | 95.2
